{"source": "patent US10160759B2", "about": "“Hydroxyethyl sulfonate of cyclin-dependent protein kinase inhibitor, crystalline form thereof and preparation method therefor” (Jiangsu Hengrui Medicine Co., Ltd., priority 2015, dated 2018)", "origin": "cited, not measured here", "details": "patients, clinical trial NCT00721409"}
{"smiles": "N#Cc1ccc(C(c2ccc(C#N)cc2)n2cncn2)cc1", "note": "[letrozole]", "values": [{"measurement": "progression-free survival (PFS)", "result": 7.5, "unit": "months"}]}
